Measurements reported in patent US20130067616A1, “Plant Defensive Peptides” (priority 2010, published 2013).
Ends that are not written are not given here.

How the values were obtained:
[1] = test system: Rhizoctonia solani; assay: Inhibitory concentrations of antimicrobial peptides and antibiotics against Rhizoctonia solani in vitro; format: cell-based; parameters: MIC, minimum concentration that completely inhibits growth of fungal cells: unit: μM; settings: for IC50: ± std, read-out: IC50, concentration that inhibits 50% growth of fungal cultures vs control
[2] = test system: phytopathogenic bacteria and fungi; assay: Antibacterial and antifungal resistance of Arabidopsis expressing antimicrobial peptides; format: in vivo; settings: carbonic anhydrase promoter, rice endochitinase signal peptide
Excerpt: Including the acidic peptide is thus a preferred aspect of practicing the invention, although it may not be required. Tagging the βPTH precursor with EGFP greatly impaired antimicrobial activity in the mature peptide, even though EGFP was fused to the C-terminus of the acidic protein, the portion that was post-translationally cleaved.

[3] = test system: fungal cultures; settings: literature values (Thevissen et al. 1996; Oard et al. 2004); read-out: IC50, concentration of a peptide that inhibits 50% growth of fungal cultures relative to control; cited from earlier work
[4] = test system: Neurospora crassa and Saccharomyces cerevisiae; parameters: dose or concentration left out as unconfirmed; settings: concentration as low as; cited from earlier work

Compound	MIC, minimum concentration that completely inhibits growth of fungal cells [1] [µmol]	IC50 [1] [nM]	Antimicrobial resistance in vivo of Arabidopsis expressing the peptide [2]	IC50 [3] [nM]	Inhibition of fungal growth [4]
Cecropin B (KWKVFKKIEKMGRNIRNGIVKAGPAIAVLGEAKAL; ends and bridges not checked; UniProt P01508 27-61, looked up) [natural 35-residue peptide from the Cecropia moth]	9.8	4600 ± 300	only antibacterial activity, not antifungal activity	–	–
C[C@@H]([C@H](N)C(=O)N[C@H](C(=O)O)[C@H]1O[C@@H](n2ccc(=O)[nH]c2=O)[C@H](O)[C@@H]1O)[C@H](O)c1ccc(O)cn1 [Nikkomycin Z]	4.5	860 ± 100	–	–	–
Magainin II	30.2	15700 ± 900	–	–	–
β-Purothionin [βPTH]	5.02	1140 ± 400	the greatest antibacterial and antifungal resistance	1100	–
α-Hordothionin (KSCCRSTLGRNCYNLCRVRGAQKLCAGVCRCKLTSSGKCPTGFPK) [barley seed-specific thionin, GenBank X05901]	–	–	–	1000	–
CC[C@H](C)[C@H](NC(=O)CN)C(=O)NCC(=O)N[C@@H](C)C(=O)N[C@H](C(=O)N[C@@H](CC(C)C)C(=O)N[C@@H](CCCCN)C(=O)N[C@H](C(=O)N[C@@H](CC(C)C)C(=O)N[C@H](C(=O)N[C@H](C(=O)NCC(=O)N[C@@H](CC(C)C)C(=O)N1CCC[C@H]1C(=O)N[C@@H](C)C(=O)N[C@@H](CC(C)C)C(=O)N[C@H](C(=O)N[C@@H](CO)C(=O)N[C@@H](Cc1c[nH]c2ccccc12)C(=O)N[C@H](C(=O)N[C@@H](CCCCN)C(=O)N[C@@H](CCCNC(=N)N)C(=O)N[C@@H](CCCCN)C(=O)N[C@@H](CCCNC(=N)N)C(=O)N[C@@H](CCC(N)=O)C(=O)N[C@@H](CCC(N)=O)C(N)=O)[C@@H](C)CC)[C@@H](C)CC)[C@@H](C)O)[C@@H](C)O)C(C)C)C(C)C [Melittin]	13.1	7100 ± 600	–	–	–
α-purothionin	–	–	–	–	up to 50%
C[C@@H]1[C@H](O)[C@@H](C)/C=C/C=C/CC/C=C/C=C/C=C/C=C/C(O[C@H]2O[C@H](C)[C@@H](O)[C@H](N)[C@@H]2O)CC2O[C@](O)(CC(O)C(O)CCC(O)CC(O)CC(O)CC(=O)O[C@H]1C)CC(O)C2C(=O)O (some centres unmarked) [Nystatin]	5.2	1100 ± 300	–	–	–
